In patent US9597331B2, “Therapeutic compositions containing macitentan” (ACTELION PHARMACEUTICALS LTD, priority 2008, dated 2017):

System: pulmonary hypertensive male Wistar rats treated with monocrotaline
Assay: Acute effect on mean pulmonary arterial pressure in monocrotaline treated rats (monocrotaline model of pulmonary hypertension, variant 2)
Assay type: in vivo, rat
Details: single administration, 25 to 30 days after monocrotaline, negative area = pressure decreases
Method: Male Wistar rats are purchased from Harlan (Netherlands) and maintained under conditions in accordance with local guidelines (Basel-Landschaft cantonal veterinary office). All rats are housed in climate-controlled conditions with a 12:12 hour light:dark cycle, and had free access to chow and water. A telemetry system is implanted under anaesthesia by inhalation of 2.5% isoflurane (in 70% O2+30% N2O). Under aseptic conditions, a pressure radio-frequency transmitter is implanted into the peritoneal cavity, and a sensing catheter is inserted in the pulmonary artery. The transmitter is sutured to the abdominal musculature and the skin is closed. […]
Four weeks after injection of MCT, the rats become pulmonary hypertensive and the respective effects of a single oral administration of Macitentan, of the compound having prostacyclin receptor (IP) agonist properties and of their combination can be evaluated on mean pulmonary arterial pressure. […]
Mean pulmonary arterial pressure was measured over time. […] Area Under Curve (AUC) was calculated for each group of rats after the oral administration of the different treatment(s) (a positive area being found if the mean pulmonary arterial blood pressure increases and a negative area being found if the mean pulmonary arterial blood pressure decreases).

Row | SMILES | AUC (Area Under Curve of mean pulmonary arterial pressure vs time) (NS-304 30 mg/kg per os) | AUC (Area Under Curve of mean pulmonary arterial pressure vs time) (macitentan 10 mg/kg per os)
1 | CC(C)N(CCCCOCC(=O)NS(C)(=O)=O)c1cnc(-c2ccccc2)c(-c2ccccc2)n1 [NS-304, 2-{4-[(5,6-diphenylpyrazin-2-yl)(isopropyl)amino]butoxy}-N-(methylsulfonyl)acetamide] | −99 ± 128 | –
2 | CCCNS(=O)(=O)Nc1ncnc(OCCOc2ncc(Br)cn2)c1-c1ccc(Br)cc1 [macitentan] | – | −381 ± 147
